Test results from paper PMC10630888, “Nuclear ERK1/2 signaling potentiation enhances neuroprotection and cognition via Importinα1/KPNA2” (EMBO Molecular Medicine, 2023).
Where “and” joins values, the source holds several entries; their conditions need not be identical. Equal entries are not always repeated.

How the values were obtained:
[1] = test system: cleaved caspase-3; assay: Cleaved caspase-3 in striatum of zQ175 females after RB5; format: in vivo, mouse; conditions: RB5 for 9 days
Protocol: (§1) Immunofluorescence was performed as described in Papale et al ([2016]). Briefly, 1 h after blocking in 5% normal goat serum, slices were incubated overnight at 4°C with the following primary antibodies: anti‐phospho (Ser10)‐acetylated (Lys14) histone H3 (1:1,000, Millipore), anti‐phospho‐S6 ribosomal protein (Ser235/236) (1:200, Cell Signaling Technology) anti‐phospho‐S6 ribosomal protein (Ser240/244) (1:200, Cell Signaling), cleaved caspase‐3 (1:200, Cell Signaling Technology), anti‐mutant Huntingtin (1:100, Developmental Studies Hybridoma Bank, University of Iowa, #MW8), and NeuN (1:1,000, Millipore). […]
In ex‐vivo and in‐vivo immunofluorescence experiments, the number of p‐S6 or p‐AcH3 immunoreactive neurons among NeuN‐positive neurons was counted in 2–3 consecutive striatal sections per mouse in four fields per section. Caspase 3‐positive cells were quantified among NeuN‐positive neurons in each slide and expressed as percentage (ratio between caspase‐3‐positive cells and total NeuN‐positive neurons) for each field acquired through the slide. The number of cells showing mutant Huntingtin inclusions were expressed as a percentage of mutant Huntingtin‐positive cells among DAPI‐positive cells. […]

[2] = test system: S6 (Ser240/244) phosphorylation; assay: Striatal pS6 (Ser240/244) immunofluorescence 1 h after single injection; format: in vivo, mouse; conditions: single injection 20 mg/kg i.p., individual mice
Protocol: as §1
(§2) In ex‐vivo and in‐vivo immunofluorescence experiments, the number of p‐S6 or p‐AcH3 immunoreactive neurons among NeuN‐positive neurons was counted in 2–3 consecutive striatal sections per mouse in four fields per section. Caspase 3‐positive cells were quantified among NeuN‐positive neurons in each slide and expressed as percentage (ratio between caspase‐3‐positive cells and total NeuN‐positive neurons) for each field acquired through the slide. The number of cells showing mutant Huntingtin inclusions were expressed as a percentage of mutant Huntingtin‐positive cells among DAPI‐positive cells.

[3] = test system: S6 (Ser235/236) phosphorylation; assay: Striatal pS6 (Ser235/236) immunofluorescence 1 h after single injection; format: in vivo, mouse; conditions: single injection 20 mg/kg i.p., individual mice
Protocol: (§3) Immunofluorescence was performed as described in Papale et al ([2016]). Briefly, 1 h after blocking in 5% normal goat serum, slices were incubated overnight at 4°C with the following primary antibodies: anti‐phospho (Ser10)‐acetylated (Lys14) histone H3 (1:1,000, Millipore), anti‐phospho‐S6 ribosomal protein (Ser235/236) (1:200, Cell Signaling Technology) anti‐phospho‐S6 ribosomal protein (Ser240/244) (1:200, Cell Signaling), cleaved caspase‐3 (1:200, Cell Signaling Technology), anti‐mutant Huntingtin (1:100, Developmental Studies Hybridoma Bank, University of Iowa, #MW8), and NeuN (1:1,000, Millipore). Corresponding secondary antibodies (Alexa Fluor 546 conjugated anti‐mouse (1:200, Thermo Fisher Scientific), Alexa Fluor 488 conjugated anti‐rabbit (1:500, Thermo Fisher Scientific) and Pacific Blue goat anti‐mouse (1:200, Thermo Fisher Scientific) were incubated at room temperature for 1 h. Sections stained for mutant Huntingtin were incubated with DAPI for 20 min. Sections were subsequently mounted with fluorescent mounting medium (DAKO). Single and double‐labeled images ([…]) were obtained at 40× magnification from the striatum using a laser scanning confocal microscope (Leica SP2) equipped with the corresponding lasers and appropriate filter sets to avoid the crosstalk between the fluorochromes.
as §2

[4] = test system: p-ERK in dorsal striatum; assay: In vivo time course of striatal pERK after RB5; design: species or system mouse; conditions: mice, acute systemic administration, 20 mg/kg i.p.
Protocol: For the dose response study, 2‐month‐old CD1 male mice were injected with different doses of RB5 (1, 2.5, 5, 10, and 20 mg/kg, i.p.), whereas the control group was injected with 20 mg/kg (i.p.) of SCR peptide. Mice were perfused 1 h later with 4% PFA. For the time course study, mice were injected i.p. with 20 mg/kg of RB5 and perfused at different time points with 4% PFA (1, 3, 6, and 12 h). The control group was injected i.p. with 20 mg/kg of SCR. Brains were postfixed in 4% PFA for 24 h and cryoprotected overnight in sucrose 30% before immunohistochemistry against phospho‐ERK1/2.
Immunohistochemistry was performed as described in Papale et al ([2016]). […]
For in vivo immunohistochemistry experiments, images were acquired from the dorsal striatum using a Leica DM IRB microscope under a 20× objective. The number of p‐ERK, p‐MSK‐1, p‐ELK, p‐MEK‐1, p‐VG K+, c‐Fos, and DARPP‐32 positive cells was counted in 2–3 consecutive sections per mouse, bilaterally and averaged across the sections using the ImageJ software by a blind investigator to the condition. Estimation of nigral cell loss was assessed by quantifying the number of TH‐immunopositive neurons of the SNc in 360 μm‐spaced sections for each animal.

[5] = test system: cleaved caspase-3; assay: Cleaved caspase-3 in striatum of HdhQ111/+ mice treated with RB5; format: in vivo, mouse; conditions: for cleaved caspase-3 in striatum (Fig 5 panel c): individual animals
Protocol: as §3, §2

Sequence: GRKKRRQRRRPPQGGGGGEPRRTEGVGPGVPGEVEMVKGQPFDV [RB5, six D-amino acids, acetylated N-terminus]
- Preapoptotic marker caspase-3 in striatum [1]: very significant reduction
- pS6 (Ser240/244) positive neurons in striatum [2]: no effect
- pS6 (Ser235/236) positive neurons in striatum ([3]; ERK1+/+ (WT) mice): comparable in both genotypes
- pS6 (Ser235/236) positive neurons in striatum ([3]; ERK1-/- mice): comparable in both genotypes
- pS6 (Ser235/236) positive neurons in striatum ([3]; 1 h): slightly reduced
- half-life (suggested by duration of striatal ERK phosphorylation) [4]: 6 to 12 h
- Striatal neuronal degeneration (cleaved caspase-3) ([5]; 10 month-old HdhQ111/+ mice, 20 mg/kg i.p. for 8 days): attenuated striatal neuronal degeneration
- cleaved caspase-3 in striatum (Fig 5 panel c) ([5]; HdhQ111/+ mice): 2.0154 and 1.547 and 0.5041 and 1.332 and 1.4192
- cleaved caspase-3 in striatum (Fig 5 panel c) ([5]; WT mice): 1.055 and 1.796 and 1.192 and 0.7349 and 0.4238
